Source: ChEMBL document CHEMBL1949588, “Synthesis of [¹¹C]uric acid, using [¹¹C]phosgene, as a possible biomarker in PET imaging for diagnosis of gout” (Bioorg Med Chem Lett, 2012)

How the values were obtained:
Blood [1] = assay: Drug uptake in potassium oxonate treated Sprague-Dawley rat hyperuricemic model blood at 22 to 30 MBq, iv after 60 mins by gamma counting; conditions: in vivo, 1 h
Blood [2] = assay: Ratio of drug uptake in potassium oxonate treated Sprague-Dawley rat hyperuricemic model blood at 22 to 30 MBq, iv after 65 to 70 mins to drug uptake in normal rat; format: ADME, organism-based; conditions: in vivo
Blood [3] = assay: Metabolic stability in Sprague-Dawley rat blood assessed as formation of [11C][…] metabolite at 22 to 30 MBq, iv after 30 mins by radiometric HPLC analysis; format: ADME, organism-based; conditions: in vivo, 0.5 h
[4] = Drug uptake in potassium oxonate treated Sprague-Dawley rat hyperuricemic model limb at 22 to 30 MBq, iv after 65 to 70 mins by PET analysis; format: ADME, organism-based; conditions: in vivo
Rattus norvegicus = assay: Ratio of drug uptake in potassium oxonate treated Sprague-Dawley rat hyperuricemic model at 22 to 30 MBq, iv after 60 mins to drug uptake in normal rat; format: ADME, organism-based; conditions: in vivo, 1 h
[5] = Metabolic stability in potassium oxonate treated Sprague-Dawley rat hyperuricemic model blood assessed as compound remaining at 22 to 30 MBq, iv after 30 mins by radiometric HPLC analysis; format: ADME, organism-based; conditions: read-out: Stability

O=c1[nH]c(=O)c2[nH][11c](=O)[nH]c2[nH]1
Drug uptake (Blood [1]): 0.57 %ID
Ratio (Blood [2]): 1.6
Stability (Blood [3]): Unstable
Drug uptake [4]: Active
Ratio (Rattus norvegicus): 1.7
remaining at 0.5 h [5]: 100%
